Results published in ChEMBL document CHEMBL1201862, “PubChem BioAssay data set” (2004).
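In this assay, cells in 96-well plates receive the compound at five concentrations for 48 hours. Endpoints are linearly interpolated between the surrounding concentrations. At the GI50, growth is halved.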 The source made the active and inactive calls. Cut-off read from the data, not from the text of the source: active = GI50 up to about 1.1 µM and inactive = higher.

Key:
Experiment in all cases: NCI tumour cell line growth inhibition, 48 h
BT-549 = system: BT-549
CAKI-1 = system: CAKI-1
HCC 2998 = system: HCC 2998
HCT-116 = system: HCT-116
KM12 = system: KM12
MOLT-4 = system: MOLT-4
Malme-3M = system: Malme-3M
NCI/ADR-RES = system: NCI/ADR-RES
OVCAR-5 = system: OVCAR-5
PC-3 = system: PC-3
RPMI-8226 = system: RPMI-8226
SF-539 = system: SF-539
SK-MEL-5 = system: SK-MEL-5
SN12C = system: SN12C
SR = system: SR
U-251 = system: U-251
UACC-257 = system: UACC-257
UACC-62 = system: UACC-62
Hs-578T = system: Hs-578T
SNB-19 = system: SNB-19

Row | SMILES | GI50 (BT-549) | GI50 (CAKI-1) | GI50 (HCC 2998) | GI50 (HCT-116) | GI50 (KM12) | GI50 (MOLT-4) | GI50 (Malme-3M) | GI50 (NCI/ADR-RES) | GI50 (OVCAR-5) | GI50 (PC-3) | GI50 (RPMI-8226) | GI50 (SF-539) | GI50 (SK-MEL-5) | GI50 (SN12C) | GI50 (SR) | GI50 (U-251) | GI50 (UACC-257) | GI50 (UACC-62) | GI50 (Hs-578T) | GI50 (SNB-19)
1 | CCCCNC(=S)Nc1nc(C(=O)NNC(=S)NCC)cs1 | > 100 µM (inactive) | 63.5 µM (inactive) | > 100 µM (inactive) | 53.1 µM (inactive) | 76.9 µM (inactive) | 50.4 µM (inactive) | > 100 µM (inactive) | 26.5 µM (inactive) | > 100 µM (inactive) | > 100 µM (inactive) | > 100 µM (inactive) | 73.5 µM (inactive) | 25.7 µM (inactive) | 56.8 µM (inactive) | 6.73 µM (inactive) | > 100 µM (inactive) | > 100 µM (inactive) | > 100 µM (inactive) | – | –
2 | COC(=O)C1=C(OC(=O)/C(=C/c2ccc(Cl)cc2)c2ccc(Cl)cc2)C(C(=O)OC)[C@@]2(O)[C@@H](C(=O)OC)[C@H](C)C[C@@H]1[C@@H]2C(=O)OC (stereo partly drawn) | – | > 100 µM (inactive) | > 73.6 µM (inactive) | 31.6 µM (inactive) | 11 µM (inactive) | 0.328 µM (active) | 29 µM (inactive) | 17.2 µM (inactive) | > 21 µM (inactive) | 12.6 µM (inactive) | 18 µM (inactive) | > 100 µM (inactive) | > 100 µM (inactive) | > 100 µM (inactive) | > 63.2 µM (inactive) | 17.8 µM (inactive) | > 83.6 µM (inactive) | > 100 µM (inactive) | 39.4 µM (inactive) | 16.4 µM (inactive)
3 | CC[C@@]1(OC(=O)C(N)CCC(=O)O)C(=O)OCc2c1cc1n(c2=O)Cc2cc3ccccc3nc2-1 (stereo partly drawn) | 0.733 µM (active) | < 0.0182 µM (active) | 0.461 µM (active) | 0.122 µM (active) | – | 0.0106 µM (active) | 0.266 µM (active) | < 0.01 µM (active) | 0.248 µM (active) | 0.194 µM (active) | 0.148 µM (active) | 0.018 µM (active) | 0.0736 µM (active) | 0.0244 µM (active) | – | 0.0202 µM (active) | 0.228 µM (active) | < 0.0152 µM (active) | 7.05 µM (inactive) | 0.0541 µM (active)
4 | O=C(Cn1c(=O)oc2ccc(C(=O)c3ccc(F)cc3)cc21)c1ccccc1 | – | > 100 µM (inactive) | > 100 µM (inactive) | > 100 µM (inactive) | > 100 µM (inactive) | 42.4 µM (inactive) | > 100 µM (inactive) | > 100 µM (inactive) | > 100 µM (inactive) | > 100 µM (inactive) | > 100 µM (inactive) | > 100 µM (inactive) | 48 µM (inactive) | > 100 µM (inactive) | > 100 µM (inactive) | > 100 µM (inactive) | > 100 µM (inactive) | > 100 µM (inactive) | > 100 µM (inactive) | > 100 µM (inactive)
5 | N#CC1(C#N)C2CCCCC23OC(=N)C1(C#N)C(c1ccccc1)O3 (stereo not drawn) | 16.8 µM (inactive) | 10.8 µM (inactive) | 14.2 µM (inactive) | 17 µM (inactive) | 8.49 µM (inactive) | 25.1 µM (inactive) | 17 µM (inactive) | 41.5 µM (inactive) | 21.2 µM (inactive) | 21.4 µM (inactive) | – | 17.1 µM (inactive) | 16.1 µM (inactive) | 13.1 µM (inactive) | – | 17.6 µM (inactive) | 18 µM (inactive) | 17.9 µM (inactive) | 0.302 µM (active) | 45.9 µM (inactive)
6 | COC(=O)C1=C(O)C(C(=O)OC)[C@]2(O)[C@H](C(=O)OC)[C@H]1C[C@@H](c1cccc(OC)c1)[C@H]2C(=O)OC (stereo partly drawn) | 30.6 µM (inactive) | 22.4 µM (inactive) | 20.5 µM (inactive) | 22.2 µM (inactive) | 27.7 µM (inactive) | 20.4 µM (inactive) | 24.5 µM (inactive) | 29.4 µM (inactive) | 24.9 µM (inactive) | – | 19.4 µM (inactive) | 32.3 µM (inactive) | 23.5 µM (inactive) | 22.9 µM (inactive) | 21.9 µM (inactive) | 24.2 µM (inactive) | 37.7 µM (inactive) | 16.9 µM (inactive) | 18.7 µM (inactive) | 25.9 µM (inactive)
7 | O=C(CSCC(=O)N/N=C\c1cccc(Br)c1)N/N=C\c1cccc(Br)c1 | 21.2 µM (inactive) | 17.9 µM (inactive) | – | 14.8 µM (inactive) | 15 µM (inactive) | 21.3 µM (inactive) | 0.182 µM (active) | 15.9 µM (inactive) | 18.6 µM (inactive) | 14.5 µM (inactive) | – | 23.6 µM (inactive) | 19.1 µM (inactive) | 16.2 µM (inactive) | 27.2 µM (inactive) | 15.1 µM (inactive) | 14.1 µM (inactive) | 14.7 µM (inactive) | 18.2 µM (inactive) | 46.5 µM (inactive)
8 | O=[N+]([O-])c1ccc(O)c(/C=N/CC2CCCN3CCCCC23)c1 (stereo not drawn) | 38.6 µM (inactive) | 57.7 µM (inactive) | 22.5 µM (inactive) | 44.2 µM (inactive) | 37.7 µM (inactive) | – | 31 µM (inactive) | 20.7 µM (inactive) | 31.7 µM (inactive) | 57.1 µM (inactive) | – | 25.6 µM (inactive) | 19.3 µM (inactive) | – | – | – | 32.5 µM (inactive) | 27.9 µM (inactive) | 16.9 µM (inactive) | 25.1 µM (inactive)
9 | CN1CCN(C(=S)N(C(=O)c2ccc(Cl)cc2)C2CCCCC2)CC1 | > 100 µM (inactive) | – | > 100 µM (inactive) | – | > 100 µM (inactive) | 63.1 µM (inactive) | > 100 µM (inactive) | – | > 100 µM (inactive) | – | > 100 µM (inactive) | – | > 100 µM (inactive) | > 100 µM (inactive) | 58.9 µM (inactive) | > 100 µM (inactive) | > 100 µM (inactive) | > 100 µM (inactive) | 27.4 µM (inactive) | > 100 µM (inactive)
10 | COc1cc([N+](=O)[O-])c(S(=O)(=O)O)cc1-n1nc(C(=O)Nc2ccccc2)n[n+]1-c1cc(S(=O)(=O)[O-])c([N+](=O)[O-])cc1OC | > 100 µM (inactive) | > 100 µM (inactive) | – | > 100 µM (inactive) | > 100 µM (inactive) | > 100 µM (inactive) | > 100 µM (inactive) | > 100 µM (inactive) | > 100 µM (inactive) | > 100 µM (inactive) | > 100 µM (inactive) | – | > 100 µM (inactive) | > 100 µM (inactive) | > 100 µM (inactive) | 97.7 µM (inactive) | > 100 µM (inactive) | 42.2 µM (inactive) | > 100 µM (inactive) | > 100 µM (inactive)
11 | O=S(=O)(O)c1cc(S(=O)(=O)O)c2c(/N=N/c3ccc(S(=O)(=O)O)c4ccccc34)c(O)ccc2c1 | > 100 µM (inactive) | > 100 µM (inactive) | – | > 100 µM (inactive) | > 100 µM (inactive) | > 100 µM (inactive) | 21.9 µM (inactive) | > 100 µM (inactive) | > 100 µM (inactive) | > 100 µM (inactive) | > 100 µM (inactive) | – | > 100 µM (inactive) | > 100 µM (inactive) | – | > 100 µM (inactive) | > 100 µM (inactive) | > 100 µM (inactive) | > 100 µM (inactive) | > 100 µM (inactive)
12 | Cc1ccc(-n2nnc(C(N)=O)c2O)cc1 | > 100 µM (inactive) | > 100 µM (inactive) | > 100 µM (inactive) | > 100 µM (inactive) | > 100 µM (inactive) | > 100 µM (inactive) | > 100 µM (inactive) | > 100 µM (inactive) | > 100 µM (inactive) | > 100 µM (inactive) | > 100 µM (inactive) | – | > 100 µM (inactive) | > 100 µM (inactive) | – | > 100 µM (inactive) | > 100 µM (inactive) | > 100 µM (inactive) | > 100 µM (inactive) | > 100 µM (inactive)
13 | CC(=O)C1C(=O)C(=O)N(c2ccc([N+](=O)[O-])cc2[N+](=O)[O-])C1=O (stereo not drawn) | > 100 µM (inactive) | > 100 µM (inactive) | > 100 µM (inactive) | > 100 µM (inactive) | > 100 µM (inactive) | > 100 µM (inactive) | – | > 100 µM (inactive) | > 100 µM (inactive) | > 100 µM (inactive) | – | > 100 µM (inactive) | > 100 µM (inactive) | > 100 µM (inactive) | – | > 100 µM (inactive) | > 100 µM (inactive) | > 100 µM (inactive) | > 100 µM (inactive) | > 100 µM (inactive)
14 | CC(=O)O[C@H]1C[C@H](O[C@H]2[C@@H](O)C[C@H](O[C@H]3[C@@H](O)C[C@H](O[C@H]4CC[C@@]5(C)[C@H](CC[C@@H]6[C@@H]5CC[C@]5(O)[C@@H](C7=CC(=O)OC7)CC[C@]65O)C4)O[C@@H]3C)O[C@@H]2C)O[C@H](C)[C@H]1O[C@@H]1O[C@H](CO)[C@@H](O)[C@H](O)[C@H]1O | 0.304 µM (active) | 0.132 µM (active) | 1.52 µM (inactive) | 0.243 µM (active) | 0.565 µM (active) | 0.0262 µM (active) | 0.403 µM (active) | 0.237 µM (active) | 0.455 µM (active) | 0.328 µM (active) | 0.462 µM (active) | 0.185 µM (active) | 0.223 µM (active) | 0.258 µM (active) | – | 0.427 µM (active) | 0.597 µM (active) | 0.769 µM (active) | 0.348 µM (active) | 0.771 µM (active)
15 | COc1ccc(-c2cc(O)c3cc(C)cnc3n2)cc1 | 2 µM (inactive) | 6.11 µM (inactive) | 14.5 µM (inactive) | – | 3.56 µM (inactive) | 4.43 µM (inactive) | 4.67 µM (inactive) | 3.73 µM (inactive) | 93.8 µM (inactive) | – | 3.73 µM (inactive) | 6.41 µM (inactive) | – | 5.13 µM (inactive) | – | – | 5.64 µM (inactive) | 4.29 µM (inactive) | 4.66 µM (inactive) | > 100 µM (inactive)
